Experimental findings from paper PMC9148072, “Design, Cytotoxicity and Antiproliferative Activity of 4-Amino-5-methyl-thieno[2,3-d]pyrimidine-6-carboxylates against MFC-7 and MDA-MB-231 Breast Cancer Cell Lines” (Molecules, 2022) are described below.

Like-named read-outs stand apart in the source and are kept apart here.

One series has as its system BALB 3T3 cells. Briefly: 3T3 Neutral Red Uptake (NRU) cytotoxicity test. The settings on record: BALB 3T3, 15 to 4000 µg/mL, 24 h. It is filed as cell-based, mouse.
Series [1] can be described thus: 3T3 Neutral Red Uptake (NRU) cytotoxicity test. The conditions noted are these: mouse, BALB/3T3 clone A31 cells. Type of series: cell-based, mouse.
Another series deals with MCF-10A cell line. Briefly: MTT antiproliferative assay, MCF-10A. Type of series: cell-based. The settings on record: Homo sapiens, 72 h. Here is the method: (§1) The compounds were studied for antiproliferative activity by standard MTT dye-reduction assay. Cell cultures from MCF-10A, MCF-7 and MDAMB-231 cell lines were incubated for 72 h in the presence of the tested substances in a wide range of concentrations. At the MCF-10A and MDA-MB-231 cell lines, compound 4 was applied in the range from 0.5 to 100 µg/mL, and all others from 4 to 1000 µg/mL.
In order to determine antitumor activity, as a reliable model and a control we used the MCF-10A cell line (normal human mammary epithelial cells).
(§2) All breast cell lines (MCF-10A, MCF-7 and MDA-MB-231) were purchased from the American Type Culture Collection—ATCC (Manassas, VA, USA). The MCF-7 and MDA-MB-231 were cultivated in Dulbecco’s Modified Eagle’s Medium (DMEM) supplemented with 10% fetal bovine serum (FBS), 1% sodium pyruvate, 1% MEM nonessential amino acids (NEAA) without antibiotics. The nontumorigenic breast cell line (MCF-10A) was cultivated in DMEM medium (Sigma-Aldrich, St. Louis, MO, USA) supplemented with 10% FBS, 1% sodium pyruvate, 1% nonessential amino acids (NEAA), 20 ng/mL human epithelia growth factor (hEGF), 10 μg/mL insulin, and 0.5 μg/mL hydrocortisone without antibiotics. All cell lines were maintained in a humidified atmosphere with 5% CO2 at 37 °C.
(§3) Using the standard MTT dye-reduction assay, described by Mosmann the antiproliferative activity was tested. The method is based on the metabolism of the tetrazolium salt MTT to insoluble formazan. The formazan absorption was registered using a microplate reader at λ = 540 nm. The measured absorption is an indicator of cell viability and metabolic activity. Antiproliferative activities were expressed as IC50 values (concentrations required for 50% inhibition of cell growth), calculated using nonlinear regression analysis (GraphPad Software, San Diego, CA, USA).
In general terms: Tetrazolium assays rely on reduction of a dye to a coloured formazan, in cell work by metabolically active cells.

The next series has as its system MDA-MB-231 cell line. Briefly: MTT antiproliferative assay, MDA-MB-231. The conditions noted are these: for IC50: Homo sapiens, MDA-MB-231, 72 h, MTT. It is filed as cell-based, human. Here is the method:
as §1, §2, §3

A further series relates to MCF-7 cell line. The series can be described thus: MTT antiproliferative assay, MCF-7. Type of series: cell-based, human. The conditions noted are these: for IC50: Homo sapiens, MCF7, MCF-7, 72 h, MTT. The protocol:
as §1
The MCF-7 cell line was treated with compounds 2, 3 and 4 at concentrations from 0.5 to 100 µg/mL, and all others from 4 to 1000 µg/mL. The antiproliferative activity expressed in % relative to the negative control (untreated cells accepted as a 100% viable or 0% antiproliferative activity) was determined and shown on Figure 6.
as §2, §3

As a reminder, the melting point is the temperature, or range, at which the solid turns liquid. In general, CC50 refers to the concentration that lowers cell viability or growth by half. One may read the IC50 as the concentration at which inhibition is half-maximal. `CCOC(=O)c1sc2nc(-c3ccncc3)nc(N)c2c1C.Cl` [Compound 6, Ethyl 4-Amino-5-methyl-2-(pyridin-4-yl)thieno[2,3-d]pyrimidine-6-carboxylate hydrochloride] returned a melting point of 259 to 261 °C. For the same compound, in the series on BALB 3T3 cells, the “cytotoxicity versus BALB 3T3 cells (in words)” value was “not cytotoxic”. Besides, the CC50 at 24 h in series [1] (BALB 3T3, 24 h, no irradiation, read-out: CC50 of Mean ± SD, Cytotoxicity) is over 4000 µg/mL. Besides, in series [1] (BALB 3T3, converted from µg/mL, read-out: IC50 cytotoxicity against BALB 3T3), the IC50 at 24 h is over 13000 µM. The IC50 in the series on MCF-10A cell line (read-out: IC50 Antiproliferative Activity MCF-10A (converted)) was 1310 µM. For the same compound, the IC50 in the series with MCF-10A cell line (read-out: IC50 ± SD Antiproliferative Activity MCF-10A) came out at 411 ± 5.1 µg/mL. Further, the IC50 in the series on MDA-MB-231 cell line (read-out: IC50 Antiproliferative Activity MDA-MB-231 in µM (converted)) was 370 µM. In addition, the half-maximal inhibitory concentration (IC50) in the series on MDA-MB-231 cell line (read-out: IC50 ± SD Antiproliferative Activity MDA-MB-231) was 116 ± 9.63 µg/mL. In addition, in the series with MDA-MB-231 cell line (SI = IC50 of MCF-10A/IC50 of MDA-MB-231), the “Selective Index MDA-MB-231” value is 3.54. For the same compound, the IC50 with MCF-7 cell line (read-out: IC50 Antiproliferative Activity MCF-7 in µM (converted)) is 1410 µM. In addition, the IC50 in the series on MCF-7 cell line (read-out: IC50 ± SD Antiproliferative Activity MCF-7) came to 444 ± 9.2 µg/mL. In addition, the “Selective Index MCF-7” value in the series with MCF-7 cell line (SI = IC50 of MCF-10A/IC50 of MCF-7) is 0.92.
